Experimental data: article PMC12658050 (Scientific Reports, 2025)

Target: cyclin B1 (CCNB1) (Homo sapiens, UniProt P14635)
Assay: SPR
Type: binding

Sequence of cyclin B1 (CCNB1) (P14635 whole entry): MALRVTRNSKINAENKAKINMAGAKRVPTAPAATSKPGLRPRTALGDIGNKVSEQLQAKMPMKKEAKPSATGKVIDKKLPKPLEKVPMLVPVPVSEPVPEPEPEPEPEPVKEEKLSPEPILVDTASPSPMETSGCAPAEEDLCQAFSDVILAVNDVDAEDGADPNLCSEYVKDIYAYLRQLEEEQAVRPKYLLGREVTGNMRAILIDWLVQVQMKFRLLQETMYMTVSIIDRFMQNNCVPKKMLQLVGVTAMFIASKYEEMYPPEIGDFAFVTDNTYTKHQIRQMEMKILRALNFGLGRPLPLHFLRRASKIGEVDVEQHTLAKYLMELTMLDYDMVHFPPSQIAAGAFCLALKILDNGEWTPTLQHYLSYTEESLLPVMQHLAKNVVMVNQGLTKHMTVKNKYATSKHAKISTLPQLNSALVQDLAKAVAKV

Q: With `O=c1cc(-c2ccc(O)c(O)c2)oc2cc(O)cc(O)c12` [Luteolin, 3′,4′,5,7-tetrahydroxyflavone] as the compound, how does the Kd read?
A: ~36.7 µM
